Results taken from patent US20190031665A1, “DERIVATIVES OF PYRROLOIMIDAZOLE OR ANALOGUES THEREOF WHICH ARE USEFUL FOR THE TREATMENT OF INTER ALIA CANCER” (EMCURE PHARMACEUTICALS LIMITED, priority 2016, published 2019).

What was measured:
[1] = target: T1, human indoleamine 2,3-dioxygenase 1 (hIDO1) (Homo sapiens, UniProt P14902); assay: In-vitro human indoleamine 2,3-dioxygenase 1 (IDO1) enzyme assay; format: biochemical; conditions: for inhibition at 1 µM: hIDO1 enzyme at 1.0 μM concentration; for inhibition at 10 µM: hIDO1 enzyme at 10.0 μM concentration; for IC50: hIDO1 enzyme
T1 construct: His tag (N); purchased BPS Bioscience, San Diego, Calif., USA; host or cells: E. coli
T1 sequence (P14902 whole entry): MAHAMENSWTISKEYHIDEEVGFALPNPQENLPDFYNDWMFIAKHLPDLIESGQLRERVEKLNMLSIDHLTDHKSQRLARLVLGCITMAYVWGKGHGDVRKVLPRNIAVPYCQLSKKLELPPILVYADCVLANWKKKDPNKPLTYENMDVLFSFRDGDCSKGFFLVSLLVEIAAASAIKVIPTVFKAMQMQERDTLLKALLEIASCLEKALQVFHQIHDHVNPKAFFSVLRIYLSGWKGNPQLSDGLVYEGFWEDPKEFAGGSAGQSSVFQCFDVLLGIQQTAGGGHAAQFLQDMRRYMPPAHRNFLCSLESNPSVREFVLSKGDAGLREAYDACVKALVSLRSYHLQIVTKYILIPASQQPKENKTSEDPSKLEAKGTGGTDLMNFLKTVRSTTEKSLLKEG
Procedure: (§1) In-vitro human indoleamine 2,3-dioxygenase 1 (IDO1) enzyme assay: In the in-vitro human indoleamine 2,3-dioxygenase 1 (hIDO1) enzyme assay for screening inhibitor compounds, hIDO1 with an N-terminal histidine tag expressed and purified from E. coli (BPS Bioscience, San Diego, Calif., USA) was used. All other materials were procured from Sigma-Aldrich, St. Louis, Mo., USA.
The assay method for monitoring the conversion of L-tryptophan to N-formylkynurenine by hlDO1 was carried out as follows. hlDO1 (50 ng) was incubated with tryptophan (80 μM) in the presence of ascorbic acid (10 mM), methylene blue (10 μM), catalase (100 μg/ml) and 0.01% Tween-20 in sodium phosphate buffer (50 mM; pH 6.5) at 37° C. for 60 min. The reaction was terminated with 200 mM piperidine (PIP) and further incubated at about 65° C. for about 20 minutes to convert N-formylkynurenine (NFK) to NFK-PIP. The reaction mixture was then incubated at room temperature for about 1 hour. The fluorescence intensity was read in a fluorescence microplate reader at an excitation wavelength of 400 nm and emission wavelength of 500 nm. Percent inhibition at each concentration of test compounds was determined by estimating the decrease in NFK-PIP. Data were analyzed using nonlinear regression to generate IC50 values using Graph Pad Prism® 6.

[2] = target: T2, human tryptophan 2,3-dioxygenase (hTDO) (Homo sapiens, UniProt P48775); assay: In-vitro human tryptophan 2,3-dioxygenase (TDO) enzyme assay; format: biochemical; conditions: for inhibition at 1 µM: hTDO enzyme at 1.0 μM concentration; for inhibition at 10 µM: hTDO enzyme at 10.0 μM concentration
T2 construct: His tag (N); purchased BPS Bioscience, San Diego, Calif., USA; host or cells: E. coli
T2 sequence (P48775 whole entry): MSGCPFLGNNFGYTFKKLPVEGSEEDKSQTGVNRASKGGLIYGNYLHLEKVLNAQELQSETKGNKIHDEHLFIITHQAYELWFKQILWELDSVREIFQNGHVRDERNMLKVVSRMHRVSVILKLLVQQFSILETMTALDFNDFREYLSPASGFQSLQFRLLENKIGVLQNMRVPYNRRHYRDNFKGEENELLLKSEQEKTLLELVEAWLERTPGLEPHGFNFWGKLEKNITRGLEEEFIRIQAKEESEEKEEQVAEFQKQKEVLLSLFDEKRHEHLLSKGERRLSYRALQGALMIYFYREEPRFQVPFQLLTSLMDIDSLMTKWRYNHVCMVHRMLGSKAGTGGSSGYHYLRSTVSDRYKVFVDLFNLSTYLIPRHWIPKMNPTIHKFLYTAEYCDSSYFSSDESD
Procedure: as §1, with “In” for “In-vitro human indoleamine 2,3-dioxygenase 1 (IDO1) enzyme assay: In”, “tryptophan” for “indoleamine”, “(hTDO)” for “1 (hIDO1)”, “hTDO” for “hIDO1”
The assay monitoring method for the conversion of L-tryptophan to N-formylkynurenine by hTDO was carried out as follows. hTDO (125 ng) was incubated in the presence of 200 μM L-tryptophan, 100 mM sodium phosphate buffer (pH 7.0), 0.01% Tween-20 and 100 μM ascorbic acid at about 37° C. for about 60 minutes. The reaction was terminated with 200 mM piperidine (PIP) and further incubated at about 65° C. for about 20 minutes to convert N-formylkynurenine (NFK) to NFK-PIP. The reaction mixture was then incubated at room temperature for about 75 minutes. The fluorescence intensity was read in a fluorescence microplate reader at an excitation wavelength of 400 nm and emission wavelength of 500 nm. Percent inhibition at each concentration of test compounds was determined by estimating the decrease in NFK-PIP. Data were analyzed using nonlinear regression to generate IC50 values using Graph Pad Prism® 6.

Row | Compound | inhibition at 1 µM [1] [%] | inhibition at 10 µM [1] [%] | inhibition at 1 µM [2] [%] | IC50 [1] [nM] | inhibition at 10 µM [2] [%]
1 | CC1=C(c2ccccc2)C(CC(=O)c2ccc(N3CCCCC3)cc2)n2cncc21 (centres unmarked) [Example 50, 2-(7-methyl-6-phenyl-5H-pyrrolo[1,2-c]imidazol-5-yl)-1-(4-(piperidin-1-yl)phenyl)ethan-1-one] | ≤ 50 | ≥ 50 | ≥ 50 |  | 
2 | CC1=C(c2ccccc2)C(CC(=O)c2ccc(Br)cc2)n2cncc21 (centres unmarked) [Example 51, 1-(4-bromophenyl)-2-(7-methyl-6-phenyl-5H-pyrrolo[1,2-c]imidazol-5-yl)ethan-1-one] | ≥ 50 | ≥ 50 | ≥ 50 | > 500 | 
3 | CC1=C(c2ccccc2)C(CC(O)c2ccc(Br)cc2)n2cncc21 (centres unmarked) [Example 52, 1-(4-bromophenyl)-2-(7-methyl-6-phenyl-5H-pyrrolo[1,2-c]imidazol-5-yl)ethan-1-ol] | ≤ 50 | ≥ 50 | ≥ 50 |  | 
4 | CC1=C(c2ccccc2)C(CC(=O)c2ccc(-c3ccncc3)cc2)n2cncc21 (centres unmarked) [Example 53] | ≥ 50 | ≥ 50 | ≥ 50 | < 500 | 
5 | CC1=C(c2ccccc2)C(CC(=O)c2ccc(-c3cncnc3)cc2)n2cncc21 (centres unmarked) [Example 54] | ≥ 50 | ≥ 50 | ≥ 50 |  | 
6 | CC1=C(c2ccccc2)C(CC(=O)c2ccc(-c3cccnc3)cc2)n2cncc21 (centres unmarked) [Example 55] | ≥ 50 | ≥ 50 | ≥ 50 | < 500 | 
7 | CC1=C(c2ccccc2)C(CC(=O)c2ccc(-c3ccsc3)cc2)n2cncc21 (centres unmarked) [Example 56] | ≥ 50 | ≥ 50 | ≤ 50 | < 500 | 
8 | CC1=C(c2ccccc2)C(CC(=O)c2ccc(-c3ccc(O)cc3)cc2)n2cncc21 (centres unmarked) [Example 57] | ≥ 50 | ≥ 50 | ≤ 50 | < 500 | 
9 | CC1=C(c2ccccc2)C(CC(=O)c2ccc(-c3ccccc3F)cc2)n2cncc21 (centres unmarked) [Example 58] | ≥ 50 | ≥ 50 | ≤ 50 | < 500 | 
10 | CC1=C(c2ccccc2)C(CC(O)c2ccc(-c3ccncc3)cc2)n2cncc21 (centres unmarked) [Example 59] | ≤ 50 | ≥ 50 | ≤ 50 |  | 
11 | CC1=C(c2ccccc2)C(CC(O)c2ccc(-c3ccsc3)cc2)n2cncc21 (centres unmarked) [Example 60] | ≤ 50 | ≥ 50 | ≤ 50 |  | 
12 | CC1=C(c2ccccc2)C(CC(=O)c2ccc(-c3ccc(C(F)(F)F)cc3)cc2)n2cncc21 (centres unmarked) [Example 61] | ≤ 50 | ≥ 50 | ≤ 50 |  | 
13 | CC1=C(c2ccccc2)C(CC(=O)c2ccc(-c3ccc(C)cc3)cc2)n2cncc21 (centres unmarked) [Example 62] | ≥ 50 | ≥ 50 | ≥ 50 | < 500 | 
14 | CC1=C(c2ccccc2)C(CC(=O)c2ccc(-c3ccc(F)cc3)cc2)n2cncc21 (centres unmarked) [Example 63] | ≥ 50 | ≥ 50 | ≥ 50 |  | 
15 | CC1=C(c2ccccc2)C(CC(=O)c2ccc(-c3ccc(C)s3)cc2)n2cncc21 (centres unmarked) [Example 64] | ≥ 50 | ≥ 50 | ≤ 50 | < 500 | 
16 | CC1=C(c2ccccc2)C(CC(=O)c2ccc(-c3ccc(-c4ccccc4)cc3)cc2)n2cncc21 (centres unmarked) [Example 65] | ≤ 50 | ≤ 50 | ≤ 50 |  | 
17 | CC1=C(c2ccccc2)C(CC(=O)c2ccc(-c3cnc[nH]3)cc2)n2cncc21 (centres unmarked) [Example 67] | ≥ 50 | ≥ 50 | ≥ 50 | > 500 | 

Row | Compound | inhibition at 1 µM [1] [%] | inhibition at 10 µM [1] [%] | inhibition at 1 µM [2] [%] | IC50 [1] [nM] | inhibition at 10 µM [2] [%]
18 | CC1=C(c2ccccc2)C(CC(=O)c2cccc(Br)c2)n2cncc21 (centres unmarked) [Example 68, 1-(3-Bromo-phenyl)-2-(7-methyl-6-phenyl-5H-pyrrolo[1,2-c]imidazol-5-yl)-ethanone] | ≥ 50 | ≥ 50 | ≥ 50 |  | 
19 | CC1=C(c2ccccc2)C(CC(=O)c2cccc(-c3ccccc3)c2)n2cncc21 (centres unmarked) [Example 69] | ≥ 50 | ≥ 50 | ≤ 50 | > 500 | 
20 | CC1=C(c2ccccc2)C(CC(=O)c2cccc(-c3ccccc3F)c2)n2cncc21 (centres unmarked) [Example 70] | ≥ 50 | ≥ 50 | ≥ 50 |  | 
21 | CC1=C(c2ccccc2)C(CC(=O)c2ccc(C3CCCCC3)cc2)n2cncc21 (centres unmarked) [Example 73] | ≤ 50 | ≥ 50 | ≤ 50 |  | 
22 | CC1=C(c2ccccc2)C(CC(O)c2ccc(C3CCCCC3)cc2)n2cncc21 (centres unmarked) [Example 74] | ≤ 50 | ≥ 50 | ≤ 50 |  | 
23 | CC1=C(c2ccccc2)C(CC(=O)c2ccc(OCc3ccccc3)cc2)n2cncc21 (centres unmarked) [Example 75, 1-(4-(benzyloxy)phenyl)-2-(7-methyl-6-phenyl-5H-pyrrolo[1,2-c]imidazol-5-yl)ethan-1-one] | ≥ 50 | ≥ 50 | ≥ 50 | < 500 | 
24 | CC1=C(c2ccccc2)C(CC(=O)c2ccc(Oc3ccccc3F)cc2)n2cncc21 (centres unmarked) [Example 76, 1-(4-(2-fluorophenoxy)phenyl)-2-(7-methyl-6-phenyl-5H-pyrrolo[1,2-c]imidazol-5-yl)ethan-1-one] | ≥ 50 | ≥ 50 | ≤ 50 | < 500 | 
25 | CC1=C(c2ccccc2)C(CC(=O)c2ccc(C(=O)Nc3ccccc3)cc2)n2cncc21 (centres unmarked) [Example 77] | ≥ 50 | ≥ 50 | ≥ 50 | < 500 | 
26 | CNC(=O)c1ccc(C(=O)CC2C(c3ccccc3)=C(C)c3cncn32)cc1 (centres unmarked) [Example 78] | ≥ 50 | ≥ 50 | ≥ 50 |  | ≥ 50
27 | CC1=C(c2ccccc2)C(CC(=O)c2ccc(C(=O)Nc3cccnc3)cc2)n2cncc21 (centres unmarked) [Example 79] | ≥ 50 | ≥ 50 | ≥ 50 | > 500 | 
28 | CC1=C(c2ccccc2)C(CC(=O)c2ccc(C(=O)Nc3ccc(Cl)cc3)cc2)n2cncc21 (centres unmarked) [Example 80] | ≥ 50 | ≥ 50 | ≥ 50 |  | 
29 | CC1=C(c2ccccc2)C(CC(=O)c2ccc(C(=O)Nc3ccc(F)cc3F)cc2)n2cncc21 (centres unmarked) [Example 81] | ≥ 50 | ≥ 50 | ≥ 50 | < 500 | 
30 | CC1=C(c2ccccc2)C(CC(O)c2ccc(C(=O)Nc3ccc(Cl)cc3)cc2)n2cncc21 (centres unmarked) [Example 82] | ≤ 50 | ≥ 50 | ≤ 50 |  | 
31 | CC1=C(c2ccccc2)C(CC(=O)c2ccc(C(=O)Nc3ccc(C)cc3C)cc2)n2cncc21 (centres unmarked) [Example 84] | ≥ 50 | ≥ 50 | ≥ 50 |  | 
32 | CC1=C(c2ccc(C)cc2)C(CC(=O)C2CCCCC2)n2cncc21 (centres unmarked) [Example 86, 1-Cyclohexyl-2-(7-methyl-6-(p-tolyl)-5H-pyrrolo[1,2-c]imidazol-5-yl)ethan-1-one] | ≤ 50 | ≤ 50 | ≥ 50 |  | 
33 | CC1=C(c2ccc(C)cc2)C(CC(O)C2CCCCC2)n2cncc21 (centres unmarked) [Example 87, 1-Cyclohexyl-2-(7-methyl-6-(p-tolyl)-5H-pyrrolo[1,2-c]imidazol-5-yl)ethan-1-ol] | ≤ 50 | ≥ 50 | ≥ 50 |  | 
34 | CC1=C(c2ccccc2)C(CC(=O)C2CCCCC2)n2cncc21 (centres unmarked) [Example 88, 1-Cyclohexyl-2-(7-methyl-6-phenyl-5H-pyrrolo[1,2-c]imidazol-5-yl)-ethanone] |  | ≥ 50 | ≥ 50 | > 500 | ≥ 50
